Laboratory results published in ChEMBL document CHEMBL4311961, “Inhaled Janus Kinase (JAK) inhibitors for the treatment of asthma” (Bioorg Med Chem Lett, 2019).
In brackets after ≈: the same amount, converted by molar mass. Blank lines part the entries; values can stand above or below the compound they belong to.

Experiments:
Rattus norvegicus [1] = experiment: In vivo inhibition of eosinophils in rat bronchoalveolar lavage fluid at 4.76 ug/kg administered as dry powder inhalation relative to control; assay type: functional; settings: inhaled or nasal
Rattus norvegicus [2] = experiment: In vivo inhibition of eosinophils in rat bronchoalveolar lavage fluid at 0.6 ug/kg administered as dry powder inhalation relative to control; assay type: functional; settings: inhaled or nasal
[3] = Apparent permeability from apical to basolateral side in MDCK cells; assay type: ADME, cell-based, Canis lupus familiaris; settings: dog
[4] = Kinetic solubility of the compound at pH 7.4; assay type: physicochemical; settings: buffer, read-out: Kinetic_solubility
[5] = Dissociation constant, pKa of compound; assay type: physicochemical
Mus musculus = experiment: In vivo inhibition of IL13 induced STAT6 phosphorylation in mouse lung administered as i.t dose relative to ocntrol; assay type: functional
[6] = target: Janus Kinase (JAK) (Homo sapiens) (UniProt P52333+P23458+O60674+P29597)
Description: Binding affinity to JAK in human PBMC assessed as half life measured after compound washout was out

Structure (SMILES): COC[C@H](C(=O)Nc1cccc2c(-c3nc(Nc4cccc(S(C)(=O)=O)c4F)ncc3F)c[nH]c12)N1CCN(C)CC1 [LONDAMOCITINIB]
inhibition in vivo at 0.00476 mg/kg (Rattus norvegicus [1]): 61% | inhibition in vivo at 0.0006 mg/kg (Rattus norvegicus [2]): 68%

Papp A→B [3]: 2.7 ×10⁻⁶ cm/s | solubility kinetic [4]: 34 µM (≈ 20.8 µg/mL)
Structure (SMILES): CN(CCC#N)C1CCN(C(=O)Cn2cc(NC(=O)c3cnn4cccnc34)c(-c3cc(Cl)ccc3OC(F)F)n2)CC1

pKa [5]: 10.5
Structure (SMILES): CCc1cc(O)c(F)cc1-c1ccc2c(-c3nc4c([nH]3)CCN(C3CCN(C)CC3)C4)n[nH]c2c1
inhibition (INH) (Mus musculus): 60%

T1/2 [6]: 9 h
Structure (SMILES): CCc1cc(O)c(F)cc1-c1ccc2c(-c3nc4c([nH]3)CCN(C(=O)c3cnc(N5CCCCC5)cn3)C4)n[nH]c2c1
